The values that follow come from US11078183B2, “Tetrahydrate of H3 ligand, its process of preparation and pharmaceutical compositions comprising the same” (BIOPROJET, priority 2017, dated 2021).

Where a name gives a salt, the structure may show the parent alone. Read-outs that look alike come from different tables or passages of the source.

One data set has as its target histamine H3 (Homo sapiens, UniProt Q9Y5N1). Particulars: among the H3 ligands disclosed in WO 2006/117609; cited from earlier work.
The nature of data set [1]: Stability studies according to ICH (purity on anhydrous substance over time). Particulars: for purity on anhydrous substance: specifications 98.0-102.0%; for degradation observed (in words): up to 6 months. The format is physicochemical. The method, then:
Stability studies have been performed according to ICH.
Similar results were obtained for the 3 months sample at 30° C./65% relative humidity:
Stability has been assessed under ICH conditions.

Data set [2] can be described thus: Degradation on drying (main impurity over drying time). The format is physicochemical. Particulars: for Main impurity: drying at 60° C. The method, then:
Drying was not complete at 60° C. over 24 hours.

Experiment in data set [3]: as above
The format is physicochemical.

Data set [4] in a line: Hygroscopy: water content over storage time. The format is physicochemical. An excerpt:
This compound is hygroscopic. It uptakes water during time.

Where [5] appears, read: 40° C./75% relative humidity, 0 months.
The mark [6] stands for this setting: 40° C./75% relative humidity, 1 month.
Where [7] appears, read: 40° C./75% relative humidity, 3 months.
The mark [8] stands for this setting: 40° C./75% relative humidity, 6 months.

Sequence of histamine H3 (Q9Y5N1 whole entry): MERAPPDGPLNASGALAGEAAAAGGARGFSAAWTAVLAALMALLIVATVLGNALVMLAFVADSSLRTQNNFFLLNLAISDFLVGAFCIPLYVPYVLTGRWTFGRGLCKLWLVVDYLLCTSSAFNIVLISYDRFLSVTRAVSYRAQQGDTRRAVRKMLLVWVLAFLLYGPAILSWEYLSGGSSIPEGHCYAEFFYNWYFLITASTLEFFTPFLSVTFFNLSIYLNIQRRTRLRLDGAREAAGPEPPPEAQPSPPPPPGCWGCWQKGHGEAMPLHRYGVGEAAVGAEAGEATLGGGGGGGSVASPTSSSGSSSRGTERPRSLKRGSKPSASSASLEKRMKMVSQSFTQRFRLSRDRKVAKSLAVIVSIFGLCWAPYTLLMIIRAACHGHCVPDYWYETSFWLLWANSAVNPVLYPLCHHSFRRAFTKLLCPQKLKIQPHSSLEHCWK

On to `C[C@H]1CCCN(CCCOc2ccc(-c3cc[n+]([O-])cc3)cc2)C1` [(3S)-4-{4-[3-(3-methylpiperidin-1-yl)propoxy]phenyl}pyridine 1-oxide], for which, on histamine H3, the “potency as H3 ligand (in words)” value is “very potent”.

On to `C[C@H]1CCCN(CCCOc2ccc(-c3cc[n+]([O-])cc3)cc2)C1` [Example 52 of WO 2006/117609, (3S)-4-{4-[3-(3-methylpiperidin-1-yl)propoxy]phenyl}pyridine 1-oxide, dihydrochloride], for which the “purity on anhydrous substance” value came to 100.2 in data set [1] (30° C./65% relative humidity, 0 months); 98.4 in data set [1] (30° C./65% relative humidity, 3 months); 100.2 in data set [1] (40° C./75% relative humidity, 0 months, dihydrochloride); 100.8 in data set [1] (40° C./75% relative humidity, 1 month, dihydrochloride); 98.2 in data set [1] (40° C./75% relative humidity, 3 months, dihydrochloride); 98.4 in data set [1] (40° C./75% relative humidity, 6 months, dihydrochloride). The “degradation observed (in words)” value in data set [1] (40° C./75% relative humidity, dihydrochloride) was “some degradation is observed”. Further, the loss of purity in data set [1] (within six months, 40° C./75% relative humidity) was 2%. For the same compound, the “completeness of drying (in words)” value in data set [2] (drying at 60° C. over 24 hours) is “not complete”. In addition, the Main impurity came out at 0.08% in data set [2] (0 hr); 0.08% in data set [2] (8 hr); 0.08% in data set [2] (12 hr); 0.10% in data set [2] (24 hr); 0.08% in data set [3] (drying at 80° C., 0 hr); 0.11% in data set [3] (drying at 80° C., 8 hr). The Main impurity came out at 0.12% in data set [3] (drying at 80° C., 16 hr); 0.14% in data set [3] (drying at 80° C., 24 hr); 0.08% in data set [3] (drying at 100° C., 0 hr); 0.32% in data set [3] (drying at 100° C., 8 hr); 0.44% in data set [3] (drying at 100° C., 16 hr). Moreover, the “outcome of drying (in words)” value in data set [3] (drying at 80° C. or 100° C., complete removal of water) is “some decomposition occurred”. Further, the water content turned out to be 1 % in weight in data set [4] (batch stored under Good Manufacturing Practice, 0 months); 2 % in weight in data set [4] (batch stored under Good Manufacturing Practice, 6 months); 4 % in weight in data set [4] (batch stored under Good Manufacturing Practice, 11 months). Also, the “hygroscopicity (in words)” value in data set [4] (dihydrochloride) is recorded as “hygroscopic”; in data set [4] (listed as dihydrochloride salt, dihydrochloride) it was “too hygroscopic”.

As to `C[C@H]1CCCN(CCCOc2ccc(-c3cc[n+]([O-])cc3)cc2)C1` [Example 1, (3S)-4-{4-[3-(3-methylpiperidin-1-yl)propoxy]phenyl}pyridine 1-oxide, dihydrochloride, tetrahydrate], the “purity on anhydrous substance” value in data set [1] (setting [5]) was found to be 99.6; in data set [1] (setting [6]), 100.3; in data set [1] (setting [7]), 99.7; in data set [1] (setting [8]), 100.3. Further, the “degradation observed (in words)” value in data set [1] (40° C./75% relative humidity) is listed as “no degradation is observed”. Also, the “hygroscopicity (in words)” value in data set [4] was “not hygroscopic”. The water content worked out at 16 % in weight in data set [4] (setting [5]); 16 % in weight in data set [4] (setting [6]); 15 % in weight in data set [4] (setting [7]); 16 % in weight in data set [4] (setting [8]); 15 % in weight in data set [4] (40° C./75% relative humidity, 12 months). In addition, the “water content modification (in words)” value in data set [4] (40° C./75% relative humidity, up to 12 months) is on record as “no water content modification is observed”.
